From BindingDB's records for doi:10.1021/jm00055a007 (Abbott Laboratories, 1993)
Square brackets hold non-standard residues; d marks the D form. Peptide text beside a SMILES is read from it. pGlu = O=C1CC[C@@H](C(=O)O)N1; NMeS = CN[C@@H](CO)C(=O)O

The molecules below were run against Gonadotropin-releasing hormone receptor (Rattus norvegicus) (UniProt P30969).
Chain of Gonadotropin-releasing hormone receptor (Rattus norvegicus) (P30969 whole entry, looked up): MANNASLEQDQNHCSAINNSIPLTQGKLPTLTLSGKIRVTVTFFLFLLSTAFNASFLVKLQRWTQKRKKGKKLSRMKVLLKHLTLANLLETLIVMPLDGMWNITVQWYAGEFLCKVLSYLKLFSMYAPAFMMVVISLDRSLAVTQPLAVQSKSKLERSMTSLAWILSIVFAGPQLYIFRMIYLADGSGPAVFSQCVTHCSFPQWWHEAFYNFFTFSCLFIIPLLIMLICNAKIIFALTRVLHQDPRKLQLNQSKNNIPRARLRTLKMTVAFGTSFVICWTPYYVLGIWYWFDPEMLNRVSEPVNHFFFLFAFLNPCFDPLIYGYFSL

SMILES	Ki [nM]
CC(C)C[C@H](NC(=O)[C@@H](Cc1ccc2ccccc2c1)NC(=O)[C@H](Cc1ccc(O)cc1)NC(=O)[C@H](CO)NC(=O)[C@H](Cc1c[nH]c2ccccc12)NC(=O)[C@H](Cc1ccccc1)N(C)C(=O)[C@@H]1CCC(=O)N1)C(=O)N[C@@H](CCCN=C(N)N)C(=O)N1CCC[C@H]1C(=O)NCC(N)=O [nafarelin 2NMePhe]	0.3
CCNC(=O)[C@@H]1CCCN1C(=O)[C@H](CCCN=C(N)N)NC(=O)[C@H](CC(C)C)NC(=O)[C@@H](Cc1c[nH]c2ccccc12)NC(=O)[C@H](Cc1ccc(O)cc1)NC(=O)[C@H](CO)NC(=O)[C@H](Cc1cccc2ccccc12)NC(=O)[C@H](Cc1cnc[nH]1)NC(=O)[C@@H]1CCC(=O)N1 [deslorelin 31Nal]	0.02
CCNC(=O)[C@@H]1CCCN1C(=O)[C@H](CCCN=C(N)N)NC(=O)[C@H](CC(C)C)N(C)C(=O)[C@@H](Cc1c[nH]c2ccccc12)NC(=O)[C@H](Cc1ccc(O)cc1)NC(=O)[C@H](CO)NC(=O)[C@H](Cc1c[nH]c2ccccc12)NC(=O)[C@H](Cc1cnc[nH]1)NC(=O)[C@@H]1CCC(=O)N1 [deslorelin 7NMeLeu]	0.06
CC(C)C[C@@H](C(=O)N[C@@H](CCCN=C(N)N)C(=O)N1CCC[C@H]1C(=O)NCC(N)=O)N(C)C(=O)[C@@H](Cc1ccc2ccccc2c1)NC(=O)[C@H](Cc1ccc(O)cc1)NC(=O)[C@H](CO)NC(=O)[C@H](Cc1c[nH]c2ccccc12)NC(=O)[C@H](Cc1c[nH]cn1)NC(=O)[C@@H]1CCC(=O)N1 [nafarelin 7NMeLeu]	0.03
CCNC(=O)[C@@H]1CCCN1C(=O)[C@H](CCCN=C(N)N)NC(=O)[C@H](CC(C)C)NC(=O)[C@@H](CC(C)C)N(C)C(=O)[C@H](Cc1ccc(O)cc1)NC(=O)[C@H](CO)NC(=O)[C@H](Cc1c[nH]c2ccccc12)NC(=O)[C@H](Cc1cnc[nH]1)NC(=O)[C@@H]1CCC(=O)N1 [leuprolide 6NMeDLeu]	3.8
CCNC(=O)[C@@H]1CCCN1C(=O)[C@H](CCCN=C(N)N)N(C)C(=O)[C@H](CC(C)C)NC(=O)[C@@H](CC(C)C)NC(=O)[C@H](Cc1ccc(O)cc1)NC(=O)[C@H](CO)NC(=O)[C@H](Cc1c[nH]c2ccccc12)NC(=O)[C@H](Cc1c[nH]cn1)NC(=O)[C@@H]1CCC(=O)N1 [leuprolide 8NMeArg]	347
CCNC(=O)[C@@H]1CCCN1C(=O)[C@H](CCCN=C(N)N)NC(=O)[C@H](CC(C)C)NC(=O)[C@@H](CC(C)C)NC(=O)[C@H](Cc1ccc(O)cc1)NC(=O)[C@H](CO)NC(=O)[C@H](Cc1c[nH]c2ccccc12)NC(=O)[C@H](Cc1ccccc1)NC(=O)[C@@H]1CCC(=O)N1 [leuprolide 2 Phe] ([pGlu]FWSY[dL]LRP-NHEt)	2.19
CCNC(=O)[C@@H]1CCCN1C(=O)[C@H](CCCN=C(N)N)NC(=O)[C@H](CC(C)C)NC(=O)[C@@H](CC(C)C)NC(=O)[C@H](Cc1ccc(O)cc1)NC(=O)[C@H](CO)N(C)C(=O)[C@H](Cc1c[nH]c2ccccc12)NC(=O)[C@H](Cc1c[nH]cn1)NC(=O)[C@@H]1CCC(=O)N1 [leuprolide 4NMeSer] ([pGlu]HW[NMeS]Y[dL]LRP-NHEt)	1.41

Further lines, results first:

Ki [nM]	SMILES
0.16	CCNC(=O)[C@@H]1CCCN1C(=O)[C@H](CCCN=C(N)N)NC(=O)[C@H](CC(C)C)N(C)C(=O)[C@@H](CC(C)C)NC(=O)[C@H](Cc1ccc(O)cc1)NC(=O)[C@H](CO)NC(=O)[C@H](Cc1c[nH]c2ccccc12)NC(=O)[C@H](Cc1c[nH]cn1)NC(=O)[C@@H]1CCC(=O)N1 [leuprolide 7NMeLeu]
1.41	CCNC(=O)[C@@H]1CCCN1C(=O)[C@H](CCCN=C(N)N)NC(=O)[C@H](CC(C)C)NC(=O)[C@@H](Cc1c[nH]c2ccccc12)NC(=O)[C@H](Cc1ccc(O)cc1)NC(=O)[C@H](CO)NC(=O)[C@H](Cc1c[nH]c2ccccc12)NC(=O)[C@H](Cc1cnc[nH]1)N(C)C(=O)[C@@H]1CCC(=O)N1 [deslorelin 2NMeHis]
33.1	CCNC(=O)[C@@H]1CCCN1C(=O)[C@H](CCCN=C(N)N)NC(=O)[C@H](CC(C)C)NC(=O)[C@@H](CC(C)C)NC(=O)[C@H](Cc1ccc(O)cc1)NC(=O)[C@H](CO)NC(=O)[C@H](Cc1c[nH]c2ccccc12)NC(=O)[C@H](Cc1cnc[nH]1)N(C)C(=O)[C@@H]1CCC(=O)N1 [leuprolide 2 NMeHis]
0.01	CC(C)C[C@H](NC(=O)[C@@H](Cc1ccc2ccccc2c1)NC(=O)[C@H](Cc1ccc(O)cc1)NC(=O)[C@H](CO)NC(=O)[C@H](Cc1c[nH]c2ccccc12)NC(=O)[C@H](Cc1c[nH]cn1)NC(=O)[C@@H]1CCC(=O)N1)C(=O)N[C@@H](CCCNC(=N)N)C(=O)N1CCC[C@H]1C(=O)NCC(N)=O [nafarelin]
0.07	CC(C)C[C@H](NC(=O)[C@@H](Cc1ccc2ccccc2c1)NC(=O)[C@H](Cc1ccc(O)cc1)NC(=O)[C@H](CO)NC(=O)[C@H](Cc1c[nH]c2ccccc12)NC(=O)[C@H](Cc1ccccc1)NC(=O)[C@@H]1CCC(=O)N1)C(=O)N[C@@H](CCCN=C(N)N)C(=O)N1CCC[C@H]1C(=O)NCC(N)=O [nafarelin 2Phe]
0.01	CCNC(=O)[C@@H]1CCCN1C(=O)[C@H](CCCN=C(N)N)NC(=O)[C@H](CC(C)C)NC(=O)[C@@H](Cc1c[nH]c2ccccc12)NC(=O)[C@H](Cc1ccc(O)cc1)NC(=O)[C@H](CO)NC(=O)[C@H](Cc1c[nH]c2ccccc12)NC(=O)[C@H](Cc1cnc[nH]1)NC(=O)[C@@H]1CCC(=O)N1 [deslorelin]
1.41	CC(C)C[C@H](NC(=O)[C@@H](Cc1ccc2ccccc2c1)NC(=O)[C@H](Cc1ccc(O)cc1)NC(=O)[C@H](CO)NC(=O)[C@H](Cc1c[nH]c2ccccc12)NC(=O)[C@H](Cc1cnc[nH]1)N(C)C(=O)[C@@H]1CCC(=O)N1)C(=O)N[C@@H](CCCN=C(N)N)C(=O)N1CCC[C@H]1C(=O)NCC(N)=O [nafarelin 2NMeHis]
1	CCNC(=O)[C@@H]1CCCN1C(=O)[C@H](CCCN=C(N)N)NC(=O)[C@H](CC(C)C)NC(=O)[C@@H](Cc1c[nH]c2ccccc12)NC(=O)[C@H](Cc1ccc(O)cc1)NC(=O)[C@H](CO)NC(=O)[C@H](Cc1cccc2ccccc12)N(C)C(=O)[C@H](Cc1c[nH]cn1)NC(=O)[C@@H]1CCC(=O)N1 [deslorelin 3NMe1Nal]
0.04	CC(C)C[C@H](NC(=O)[C@@H](Cc1ccc2ccccc2c1)NC(=O)[C@H](Cc1ccc(O)cc1)NC(=O)[C@H](CO)N(C)C(=O)[C@H](Cc1c[nH]c2ccccc12)NC(=O)[C@H](Cc1c[nH]cn1)NC(=O)[C@@H]1CCC(=O)N1)C(=O)N[C@@H](CCCN=C(N)N)C(=O)N1CCC[C@H]1C(=O)NCC(N)=O [nafarelin 4NMeSer]
0.03	CC(C)C[C@H](NC(=O)[C@@H](Cc1ccc2ccccc2c1)NC(=O)[C@H](Cc1ccc(O)cc1)NC(=O)[C@H](CO)NC(=O)[C@H](Cc1c[nH]c2ccccc12)NC(=O)[C@H](Cc1c[nH]cn1)NC(=O)[C@@H]1CCC(=O)N1)C(=O)N[C@@H](CCCN=C(N)N)C(=O)N1CCC[C@H]1C(=O)N(C)CC(N)=O [nafarelin 10SarNH2]
0.74	CC(C)C[C@H](NC(=O)[C@@H](Cc1ccc2ccccc2c1)NC(=O)[C@H](Cc1ccc(O)cc1)NC(=O)[C@H](CO)NC(=O)[C@H](Cc1cccc2ccccc12)N(C)C(=O)[C@H](Cc1cnc[nH]1)NC(=O)[C@@H]1CCC(=O)N1)C(=O)N[C@@H](CCCN=C(N)N)C(=O)N1CCC[C@H]1C(=O)NCC(N)=O [nafarelin 3NMe1Nal]
